What follows are compounds tested against T1, human wild-type (WT)-pendrin (Homo sapiens, UniProt O43511) (assay: Pendrin-mediated Cl^−/I^− exchange activity, YFP fluorescence in CHO-K1 cells). Settings: CHO-K1, 30 μM; read-out: Pendrin inhibitory activity at 30 μM (%).
T1 construct: expressed in transfected cells
T1 sequence (O43511 1-780): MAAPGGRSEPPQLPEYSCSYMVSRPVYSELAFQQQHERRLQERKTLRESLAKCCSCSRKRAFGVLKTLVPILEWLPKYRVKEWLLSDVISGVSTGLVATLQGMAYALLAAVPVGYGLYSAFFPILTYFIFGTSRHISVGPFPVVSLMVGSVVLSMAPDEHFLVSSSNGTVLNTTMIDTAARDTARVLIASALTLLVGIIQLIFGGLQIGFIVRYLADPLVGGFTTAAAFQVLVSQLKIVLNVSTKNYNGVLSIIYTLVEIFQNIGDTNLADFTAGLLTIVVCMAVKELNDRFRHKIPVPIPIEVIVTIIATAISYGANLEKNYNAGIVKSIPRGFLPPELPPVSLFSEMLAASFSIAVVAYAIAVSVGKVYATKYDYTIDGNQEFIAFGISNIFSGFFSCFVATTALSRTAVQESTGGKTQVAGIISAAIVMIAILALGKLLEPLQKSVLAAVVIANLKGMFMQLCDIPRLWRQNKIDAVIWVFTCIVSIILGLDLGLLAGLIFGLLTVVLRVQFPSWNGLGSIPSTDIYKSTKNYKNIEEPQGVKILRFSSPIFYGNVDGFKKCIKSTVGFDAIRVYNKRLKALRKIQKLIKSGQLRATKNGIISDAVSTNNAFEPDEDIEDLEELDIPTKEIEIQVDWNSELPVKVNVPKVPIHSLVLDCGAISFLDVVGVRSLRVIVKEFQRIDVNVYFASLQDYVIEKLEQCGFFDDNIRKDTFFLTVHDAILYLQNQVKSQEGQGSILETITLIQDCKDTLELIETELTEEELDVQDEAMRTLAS
Format: cell-based
Protocol: Chinese hamster ovary (CHO)-K1 cells were maintained in a DMEM medium containing 10% fetal bovine serum (FBS), 100 units/ml penicillin and 100 100 μg/ml streptomycin. CHO-K1 cells were stably transfected with pcDNA3.1 encoding halide sensor YFP-H148Q/I152L/F46L and human wild-type (WT)-pendrin. For distribution of primary culture of human nasal cavity epithelium (HNE) cells, passage-2 cells were seeded into transwell-transparent culture inserts with a pore size of 0.45 μm (Costar Co., Cambridge, MA) at a density of 2×10^5 cells/cm^2. The cells were maintained in a 1:1 mixture of Dulbecco's modified Eagle's medium (Lonza, Walkersville, MD) and bronchial epithelial growth medium (Lonza) supplemented with the following growth factors according to the manufacturer's instructions. After immersing the cells for the first 7 days, they were exposed to the apical air interface for the remainder of the culture period. After establishment of the air-liquid interface, the cells were used between 14 and 21 days. At all stages of culture, the cells were maintained at 37° C. under 5% CO2 in an air incubator.
CHO-K1 cells expressing human WT pendrin and YFP-F46L/H148Q/I152L were plated on a 96-well microplate at a density of 2×10^4 cells per well and cultured for 48 hours. Each well of the cell cultured 96-well plate was washed with PBS of 200 μL twice and was filled with HEPES buffer solution of 50 μL, respectively. […] After culturing at 37° C. for 10 minutes, the 96-well plate was positioned on FLUOstar Omega microplate reader (BMG Labtech, Ortenberg, Germany) for fluorescence analysis. By continuously (400 ms per point) recording fluorescence for 1 second (base line), each well was individually analyzed for pendrin-mediated I^− inflow, and then at 1 second, 50 μL of NaI-substituted HEPES buffer solution (NaI replacing NaCl) was added using a liquid injector and the YFP fluorescence was recorded for 5 seconds. The initial iodide inflow rate was determined from the initial slope of fluorescence by nonlinear regression, after injection the iodide (See FIG. 1).
For measurement of Cl^−/I^− exchange activity, YFP fluorescence was measured in pendrin and halide sensor YFP expressing CHO-K1 cells. Each well of the cell cultured 96-well plate was washed with PBS of 200 μL twice, and was filled with HEPES buffer solution (140 mM NaCl, 5 mM KCl, 1 mM MgCl2, 1 mM CaCl2, 10 mM glucose and 10 mM HEPES (pH 7.4)), respectively. […] After culturing at 37° C. for 10 minutes, the 96-well plate was positioned on FLUOstar Omega microplate reader (BMG Labtech, Ortenberg, Germany) for fluorescence analysis.
By continuously (400 ms per point) recording fluorescence for 1 second (base line), each well was individually analyzed for pendrin-mediated I^− inflow, and then at 1 second, 50 μL of NaI-substituted HEPES buffer solution (140 mM NaI, 5 mM KCl, 1 mM MgCl2, 1 mM CaCl2, 10 mM glucose and 10 mM HEPES (pH 7.4)) was added using a liquid injector and the YFP fluorescence was recorded for 5 seconds. The initial iodide inflow rate was determined from the initial slope of fluorescence by nonlinear regression, after injection the iodide.
Work on `CCCCc1ccc(C(=O)NC(=Cc2ccc[nH]2)C(=O)OC)cc1` [G11, Methyl 2-(4-butylbenzamido)-3-(1H-pyrrol-2-yl)acrylate] yielded an inhibition at 30 µM of 3.5%.
With `O=C1OC(c2ccc3c(c2)CCC3)=NC1=Cc1cccs1` [F29, 2-(2,3-dihydro-1H-indene-5-yl)-4-(thiophen-2-ylmethylene)oxazol-5 (4H)-one] the inhibition at 30 µM was 3.3%.
`CC(C)Oc1ccc(C2=NC(=Cc3cnn(Cc4ccccc4)c3)C(=O)O2)cc1` [F130, 4-((1-Benzyl-1H-pyrazol-4-yl)methylene)-2-(4-isopropoxyphenyl)oxazol-5 (4H)-one] was tested, and the inhibition at 30 µM was 2.7%.
Work on `CC(=O)Nc1ccc(S(=O)(=O)Oc2ccccc2C=C2N=C(c3ccc(Cl)cc3)OC2=O)cc1` [F77, 2-((2-(4-Chlorophenyl)-5-oxooxazol-4(5H)-ylidene)methyl)phenyl4-acetamido benzenesulfonate] yielded an inhibition at 30 µM of 2.6%.
`CCOc1cc(C=C2N=C(c3ccc(NC(C)=O)cc3)OC2=O)ccc1OC(=O)c1cccs1` [F69, 4-((2-(4-Acetamidophenyl)-5-oxooxazol-4(5H)-ylidene)methyl)-2-ethoxyphenylthiophene-2-carboxylate] was tested, and the inhibition at 30 µM was 3.8%.
`CCCCc1ccc(C2=NC(=Cc3ccc[nH]3)C(=O)O2)cc1` [F26, 4-((1H-pyrrol-2-yl)methylene)-2-(4-butylphenyl)oxazol-5(4H)-one] was tested, and the inhibition at 30 µM was 69.9%.
`CCN(CC)S(=O)(=O)c1cccc(C2=NC(=Cc3cccs3)C(=O)O2)c1` [F112, N,N-diethyl-3-(5-oxo-4-(thiophen-2-ylmethylene)-4,5-dihydrooxazol-2-yl)benzene sulfonamide] showed an inhibition at 30 µM of 3.1%.
`CCCc1ccc(C(=O)NC(=Cc2ccc[nH]2)C(=O)O)cc1` [G28, 2-(4-Propylbenzamido)-3-(1H-pyrrol-2-yl)acrylate] showed an inhibition at 30 µM of 53.5%.
In the case of `O=C1OC(c2ccc(Br)cc2)=NC1=Cc1ccsc1` [F51, 2-(4-Bromophenyl)-4-(thiophen-3-ylmethylene)oxazol-5(4H)-one], the inhibition at 30 µM is reported as 2.7%.
Work on `CC(C)(C)OC(=O)n1cc(C=C2N=C(c3ccc(C(C)(C)C)cc3)OC2=O)c2ccccc21` [F4, tert-butyl 3-((2-(4-(tert-butyl)phenyl)-5-oxooxazol-4(5H)-ylidene)methyl)-1H-indol-1-carboxylate] yielded an inhibition at 30 µM of 2.6%.
With `Cc1ccc(C2=NC(=Cc3cn(-c4ccccc4)nc3-c3ccccc3)C(=O)O2)cc1` [F83, 4-((1,3-Diphenyl-1H-pyrazol-4-yl)methylene)-2-(p-tolyl)oxazol-5(4H)-one] the inhibition at 30 µM was 2.4%.
With `CC(C)Cc1ccc(C2=NC(=Cc3ccco3)C(=O)O2)cc1` [F19, 4-(Furan-2-ylmethylene)-2-(4-isobutylphenyl)oxazol-5 (4H)-one] the inhibition at 30 µM was 54.8%.
In the case of `COc1cc(C=C2N=C(c3ccccc3OC)OC2=O)ccc1OCc1c(C)noc1C` [F133, 4-(4-((3,5-Dimethylisoxazol-4-yl)methoxy)-3-methoxybenzylidene)-2-(2-methoxyphenyl)oxazol-5 (4H)-one], the inhibition at 30 µM is reported as 4.1%.
With `CC(C)(C)c1ccc(C2=NC(=Cc3cccnc3)C(=O)O2)cc1` [F40, 2-(4-(tert-butyl)phenyl)-4-(pyridin-3-ylmethylene)oxazol-5(4H)-one] the inhibition at 30 µM was 92.3%.
For `CCCCCCc1ccc(C(=O)NC(=Cc2cccs2)C(=O)O)cc1` [G37, 2-(4-Hexylbenzamido)-3-(thiophen-2-yl)acrylate], the inhibition at 30 µM was 97.9%.
`CCCc1ccc(C(=O)NC(=Cc2cccs2)C(=O)O)cc1` [G30, 2-(4-Propylbenzamido)-3-(thiophen-2-yl)acrylate] was tested, and the inhibition at 30 µM was 29.7%.
`Cc1ncsc1C=C(NC(=O)c1cccc2ccccc12)C(=O)O` [G27, 2-(1-Naphthamido)-3-(4-methylthiazol-5-yl)acrylate] showed an inhibition at 30 µM of 2.2%.
In the case of `CC(C)(C)c1ccc(C(=O)NC(=Cc2cccn2-c2ccccc2)C(=O)O)cc1` [G13, 2-(4-(tert-butyl)benzamido)-3-(1-phenyl-1H-pyrrol-2-yl)acrylate], the inhibition at 30 µM is reported as 22.4%.
In the case of `COc1ccccc1C1=NC(=Cc2ccc(N(C)C)s2)C(=O)O1` [F114, 4-((5-(Dimethylamino)thiophen-2-yl)methylene)-2-(2-methoxyphenyl)oxazol-5(4H)-one], the inhibition at 30 µM is reported as 3.9%.
`CC(=O)n1cc(C=C2N=C(c3ccc(Br)cc3)OC2=O)c2ccccc21` [F72, 4-((1-Acetyl-1H-indol-3-yl)methylene)-2-(4-bromophenyl)oxazol-5(4H)-one] gave an inhibition at 30 µM of 2.8%.
`CC(C)Cc1ccc(C2=NC(=Cc3ccsc3)C(=O)O2)cc1` [F15, 2-(4-Isobutylphenyl)-4-(thiophen-3-ylmethylene)oxazol-5 (4H)-one] gave an inhibition at 30 µM of 3.8%.
For `CCCCc1ccc(C(=O)NC(=Cc2ccc[nH]2)C(=O)O)cc1` [G22, 2-(4-Butylbenzamido)-3-(1H-pyrrol-2-yl)acrylate], the inhibition at 30 µM was 89.2%.
With `CC(C)(C)c1ccc(C(=O)NC(=Cc2ccsc2)C(=O)O)cc1` [G8, 2-(4-(tert-butyl)benzamido)-3-(thiophen-3-yl)acrylate] the inhibition at 30 µM was 68.8%.
`Cc1ccc(/C=C2\N=C(c3ccc(C4=N/C(=C\c5ccc(C)o5)C(=O)O4)cc3)OC2=O)o1` [F79, 2,2′-(1,4-phenylene)bis(4-((5-methylfuran-2-yl)methylene)oxazol-5(4H)-one)] showed an inhibition at 30 µM of 3.2%.
`O=C1OC(c2ccccc2)=NC1=Cc1ccccc1[N+](=O)[O-]` [F57, 4-(2-Nitrobenzylidene)-2-phenyloxazol-5(4H)-one] gave an inhibition at 30 µM of 16.1%.
`O=C1OC(/C=C/c2ccccc2)=NC1=Cc1cccs1` [F110, 2-((E)-styryl)-4-(thiophen-2-ylmethylene)oxazol-5 (4H)-one] gave an inhibition at 30 µM of 2.9%.
`COc1ccc2cc(C=C3N=C(c4ccccc4)OC3=O)c(=O)[nH]c2c1` [F74, 4-((7-Methoxy-2-oxo-1,2-dihydroquinolin-3-yl)methylene)-2-phenyloxazol-5(4H)-one] gave an inhibition at 30 µM of 2.4%.
`O=C1OC(c2ccc3c(c2)OCO3)=NC1=Cc1ccc(N2CCCCC2)s1` [F100, 2-(Benzo[d][1,3]dioxoyl-5-yl)-4-((5-(piperidin-1-yl)thiophen-2-yl)methylene)oxazol-5(4H)-one] was tested, and the inhibition at 30 µM was 2.5%.
In the case of `COc1ccc(C2=NC(=C3C=C(c4cccs4)Oc4ccccc43)C(=O)O2)cc1` [F75, 2-(4-Methoxyphenyl)-4-(2-(thiophen-2-yl)-4H-chromen-4-ylidene)oxazol-5 (4H)-one], the inhibition at 30 µM is reported as 2.3%.
`COc1ccc(C2=NC(=Cc3ccc(C(=O)O)cc3)C(=O)O2)cc1` [F60, 4-((2-(4-Methoxyphenyl)-5-oxooxazol-4(5H)-ylidene)methyl)benzoate] was tested, and the inhibition at 30 µM was 3.1%.
In the case of `Cc1ccc(C=C2N=C(c3ccc(C(C)(C)C)cc3)OC2=O)s1` [F96, 2-(4-(tert-butyl)phenyl)-4-((5-methylthiophen-2-yl)methylene)oxazol-5(4H)-one], the inhibition at 30 µM is reported as 3.4%.

Same assay, conditions: compounds showing pendrin inhibitory activity of 50% or more at 30 μM; read-out: IC50
For `CCCCc1ccc(C2=NC(=Cc3ccc[nH]3)C(=O)O2)cc1` [F26, 4-((1H-pyrrol-2-yl)methylene)-2-(4-butylphenyl)oxazol-5(4H)-one], the IC50 was 12.8 ± 1.55 µM.
`CCCc1ccc(C(=O)NC(=Cc2ccc[nH]2)C(=O)O)cc1` [G28, 2-(4-Propylbenzamido)-3-(1H-pyrrol-2-yl)acrylate] showed an IC50 of 28.9 ± 2.18 µM.
`CC(C)Cc1ccc(C2=NC(=Cc3ccco3)C(=O)O2)cc1` [F19, 4-(Furan-2-ylmethylene)-2-(4-isobutylphenyl)oxazol-5 (4H)-one] showed an IC50 of 20.1 ± 2.46 µM.
`CCCCCCc1ccc(C(=O)NC(=Cc2cccs2)C(=O)O)cc1` [G37, 2-(4-Hexylbenzamido)-3-(thiophen-2-yl)acrylate] gave an IC50 of 8.2 ± 0.79 µM.
With `CCCCc1ccc(C(=O)NC(=Cc2ccc[nH]2)C(=O)O)cc1` [G22, 2-(4-Butylbenzamido)-3-(1H-pyrrol-2-yl)acrylate] the IC50 was 5.3 ± 0.58 µM.
Work on `CC(C)(C)c1ccc(C(=O)NC(=Cc2ccsc2)C(=O)O)cc1` [G8, 2-(4-(tert-butyl)benzamido)-3-(thiophen-3-yl)acrylate] yielded an IC50 of 20.2 ± 2.12 µM.

Source: patent US12691101B2, “Compound and method for preventing or treating of respiratory diseases comprising the same as an active ingredient” (YONSEI UNIVERSITY, UNIVERSITY - INDUSTRY FOUNDATION (UIF), priority 2019, dated 2026)
